Assays:
Type in all cases: cell-based
KRAS G12D = molecular target: T1, KRAS G12D (Homo sapiens, UniProt P01116, G12D); assay: KRAS G12D HiBit assay; settings: AsPc-1-KRAS (G12D)-HiBit-KI cell, compound treatment for 24 hours, absolute DC50
T1 construct: AsPc-1-KRAS (G12D)-HiBit-KI cell (Pharmaron); host or cells: AsPc-1-KRAS (G12D)-HiBit-KI cells (HiBiT knock-in at the endogenous KRAS locus)
How it was run: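 Cells were treated for 24 h with compounds in a 3-fold, 10-point dilution series from a 0.3 mM DMSO stock, then equilibrated 15 min at room temperature. KRAS G12D HiBiT levels were read by luminescence after lytic Nano-Glo HiBiT reagent with LgBiT; inhibition calculated relative to 0.1% DMSO high control.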

KRAS G12V = molecular target: T2, KRAS G12V (Homo sapiens, UniProt P01116, G12V); assay: KRAS G12V HiBit assay; settings: SW620-KRAS (G12V)-HiBit-KI cells, compound treatment for 24 hours
T2 construct: SW620-KRAS (G12V)-HiBit-KI cell (Pharmaron); host or cells: SW620-KRAS (G12V)-HiBit-KI cells (HiBiT knock-in at the endogenous KRAS locus)
T2 sequence (P01116 1-188 isoform P01116-2 G12V): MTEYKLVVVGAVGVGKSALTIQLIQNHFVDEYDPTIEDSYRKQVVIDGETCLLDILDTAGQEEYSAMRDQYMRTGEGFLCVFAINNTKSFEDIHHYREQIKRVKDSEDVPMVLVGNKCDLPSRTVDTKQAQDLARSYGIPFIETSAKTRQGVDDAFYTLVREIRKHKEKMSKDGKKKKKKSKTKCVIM
How it was run: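 HiBiT-tagged KRAS G12V cells treated 24 h with compound in a 3-fold, 10-point series (0.3 mM DMSO stock); lytic HiBiT reagent with LgBiT added after 15 min room-temperature equilibration. Degradation calculated against 0.1% DMSO high control.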

KRAS = molecular target: T3, KRAS (Homo sapiens, UniProt P01116); assay: KRASamp MSD assay; settings: KE39 (KRAS amplified) cells, treated with test compounds for 24 hr, MSD readout of KRAS degradation
T3 construct: endogenous in cells; host or cells: KE39 (KRAS amplified) cells
T3 sequence (P01116 1-188 isoform P01116-2): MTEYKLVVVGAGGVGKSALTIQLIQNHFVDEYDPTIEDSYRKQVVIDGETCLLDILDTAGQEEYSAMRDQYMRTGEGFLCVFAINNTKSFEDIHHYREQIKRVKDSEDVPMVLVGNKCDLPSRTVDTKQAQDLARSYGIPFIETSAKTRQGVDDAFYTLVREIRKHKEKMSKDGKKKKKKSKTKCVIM
How it was run: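 KRAS-amplified KE39 cells treated with compound for 24 hr, then lysed in RIPA buffer with protease/phosphatase inhibitors. KRAS protein measured by MSD sandwich immunoassay against a recombinant WT KRAS standard curve; DC50 derived from curve fitting of degradation.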

T1 sequence (P01116 1-188 isoform P01116-2 G12D): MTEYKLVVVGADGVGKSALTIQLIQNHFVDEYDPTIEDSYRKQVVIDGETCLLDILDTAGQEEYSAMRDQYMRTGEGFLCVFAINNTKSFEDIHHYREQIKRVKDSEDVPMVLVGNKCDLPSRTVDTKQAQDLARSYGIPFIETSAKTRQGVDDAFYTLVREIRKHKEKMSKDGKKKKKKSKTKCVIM

DC50 (KRAS G12D; class symbols) | DC50 (KRAS G12V; numeric bounds) | DC50 (KRAS) | DC50 (KRAS G12V; class symbols) | DC50 (KRAS G12D; numeric bounds given in place of class symbols) | Compound
< 100 nM | > 70.5 nM | 1 to 10 nM |  |  | CCc1c(F)ccc2cc(O)cc(-c3ncc4c(N5CCC[C@@](C)(O)C5)nc(OC[C@@]56CCCN5[C@@H](COC(=O)N5CCC(CN7CCC(c8ccc9c(c8)n(C)c(=O)n9C8CCC(=O)NC8=O)CC7)CC5)CC6)nc4c3F)c12 (stereo partly drawn) [Compound 389, ((3R,7aS)-7a-(((7-(8-ethyl-7-fluoro-3-hydroxynaphthalen-1-yl)-8-fluoro-4-((R)-3-hydroxy-3-methylpiperidin-1-yl)pyrido[4,3-d]pyrimidin-2-yl)oxy)methyl)hexahydro-1H-pyrrolizin-3-yl)methyl 4-((4-(1-(2,6-dioxopiperidin-3-yl)-3-methyl-2-oxo-2,3-dihydro-1H-benzo[d]imidazol-5-yl)piperidin-1-yl)methyl)piperidine-1-carboxylate]
< 100 nM |  | 1 to 10 nM | < 10 nM |  | CCc1c(F)ccc2cc(O)cc(-c3ncc4c(N5CCC[C@@](C)(O)C5)nc(OC[C@]56CCCN5[C@H](COC(=O)N5CCC(CN7CCC(c8ccc9c(c8)n(C)c(=O)n9C8CCC(=O)NC8=O)CC7)CC5)CC6)nc4c3F)c12 (stereo partly drawn) [Compound 390, ((3S,7aR)-7a-(((7-(8-ethyl-7-fluoro-3-hydroxynaphthalen-1-yl)-8-fluoro-4-((R)-3-hydroxy-3-methylpiperidin-1-yl)pyrido[4,3-d]pyrimidin-2-yl)oxy)methyl)hexahydro-1H-pyrrolizin-3-yl)methyl 4-((4-(1-(2,6-dioxopiperidin-3-yl)-3-methyl-2-oxo-2,3-dihydro-1H-benzo[d]imidazol-5-yl)piperidin-1-yl)methyl)piperidine-1-carboxylate]
< 100 nM |  | < 1 nM | < 10 nM |  | CCc1c(F)ccc2cc(O)cc(-c3ncc4c(N5CCC[C@](C)(O)C5)nc(OC[C@]56CCCN5[C@@H](COC(=O)N5CC7CCC(C5)C7CN5CCC(c7ccc8c(c7)n(C)c(=O)n8C7CCC(=O)NC7=O)CC5)CC6)nc4c3F)c12 (stereo partly drawn) [Compound 391, ((3R,7aR)-7a-(((7-(8-ethyl-7-fluoro-3-hydroxynaphthalen-1-yl)-8-fluoro-4-((S)-3-hydroxy-3-methylpiperidin-1-yl)pyrido[4,3-d]pyrimidin-2-yl)oxy)methyl)hexahydro-1H-pyrrolizin-3-yl)methyl 8-((4-(1-(2,6-dioxopiperidin-3-yl)-3-methyl-2-oxo-2,3-dihydro-1H-benzo[d]imidazol-5-yl)piperidin-1-yl)methyl)-3-azabicyclo[3.2.1]octane-3-carboxylate]
< 100 nM |  | < 1 nM | < 10 nM |  | CCc1c(F)ccc2cc(O)cc(-c3ncc4c(N5CCC[C@@](C)(O)C5)nc(OC[C@@]56CCCN5[C@H](COC(=O)N5C7CCC5CC(CN5CCC(c8ccc9c(c8)n(C)c(=O)n9C8CCC(=O)NC8=O)CC5)C7)CC6)nc4c3F)c12 (stereo partly drawn) [Compound 392, ((3S,7aS)-7a-(((7-(8-ethyl-7-fluoro-3-hydroxynaphthalen-1-yl)-8-fluoro-4-((R)-3-hydroxy-3-methylpiperidin-1-yl)pyrido[4,3-d]pyrimidin-2-yl)oxy)methyl)hexahydro-1H-pyrrolizin-3-yl)methyl 3-((4-(1-(2,6-dioxopiperidin-3-yl)-3-methyl-2-oxo-2,3-dihydro-1H-benzo[d]imidazol-5-yl)piperidin-1-yl)methyl)-8-azabicyclo[3.2.1]octane-8-carboxylate]
 |  | 1 to 10 nM | < 10 nM | > 100 nM | CCc1c(F)ccc2cc(O)cc(-c3ncc4c(N5CCC[C@@](C)(O)C5)nc(OC[C@@]56CCCN5[C@H](COC(=O)N5CC(CN7CCC(c8ccc9c(c8)n(C)c(=O)n9C8CCC(=O)NC8=O)CC7)C5)CC6)nc4c3F)c12 (stereo partly drawn) [Compound 394, ((3S,7aS)-7a-(((7-(8-ethyl-7-fluoro-3-hydroxynaphthalen-1-yl)-8-fluoro-4-((R)-3-hydroxy-3-methylpiperidin-1-yl)pyrido[4,3-d]pyrimidin-2-yl)oxy)methyl)hexahydro-1H-pyrrolizin-3-yl)methyl 3-((4-(1-(2,6-dioxopiperidin-3-yl)-3-methyl-2-oxo-2,3-dihydro-1H-benzo[d]imidazol-5-yl)piperidin-1-yl)methyl)azetidine-1-carboxylate]
< 100 nM |  | < 1 nM | < 10 nM |  | CCc1c(F)ccc2cc(O)cc(-c3ncc4c(N5CCC[C@@](C)(O)C5)nc(OC[C@@]56CCCN5[C@H](COC(=O)N5CC7(CC(CN8CCC(c9ccc%10c(c9)n(C)c(=O)n%10C9CCC(=O)NC9=O)CC8)C7)C5)CC6)nc4c3F)c12 (stereo partly drawn) [Compound 396, ((3S,7aS)-7a-(((7-(8-ethyl-7-fluoro-3-hydroxynaphthalen-1-yl)-8-fluoro-4-((R)-3-hydroxy-3-methylpiperidin-1-yl)pyrido[4,3-d]pyrimidin-2-yl)oxy)methyl)hexahydro-1H-pyrrolizin-3-yl)methyl 6-((4-(1-(2,6-dioxopiperidin-3-yl)-3-methyl-2-oxo-2,3-dihydro-1H-benzo[d]imidazol-5-yl)piperidin-1-yl)methyl)-2-azaspiro[3.3]heptane-2-carboxylate]
< 100 nM |  | < 1 nM | < 10 nM |  | CCc1c(F)ccc2cc(O)cc(-c3ncc4c(N5CCC[C@@](C)(O)C5)nc(OC[C@@]56CCCN5[C@H](COC(=O)N5CCC(CN7CCC(c8ccc9c(c8)n(C)c(=O)n9C8CCC(=O)NC8=O)CC7)C(F)(F)C5)CC6)nc4c3F)c12 (stereo partly drawn) [Compound 397, ((3S,7aS)-7a-(((7-(8-ethyl-7-fluoro-3-hydroxynaphthalen-1-yl)-8-fluoro-4-((R)-3-hydroxy-3-methylpiperidin-1-yl)pyrido[4,3-d]pyrimidin-2-yl)oxy)methyl)hexahydro-1H-pyrrolizin-3-yl)methyl 4-((4-(1-(2,6-dioxopiperidin-3-yl)-3-methyl-2-oxo-2,3-dihydro-1H-benzo[d]imidazol-5-yl)piperidin-1-yl)methyl)-3,3-difluoropiperidine-1-carboxylate]
< 100 nM |  | < 1 nM | < 10 nM |  | CCc1c(F)ccc2cc(O)cc(-c3ncc4c(N5CCC[C@@](C)(O)C5)nc(OC[C@@]56CCCN5[C@H](COC(=O)N5CCC(CN7CCC(c8ccc9c(c8)n(C)c(=O)n9C8CCC(=O)NC8=O)C(F)(F)C7)CC5)CC6)nc4c3F)c12 (stereo partly drawn) [Compound 398, ((3S,7aS)-7a-(((7-(8-ethyl-7-fluoro-3-hydroxynaphthalen-1-yl)-8-fluoro-4-((R)-3-hydroxy-3-methylpiperidin-1-yl)pyrido[4,3-d]pyrimidin-2-yl)oxy)methyl)hexahydro-1H-pyrrolizin-3-yl)methyl 4-((4-(1-(2,6-dioxopiperidin-3-yl)-3-methyl-2-oxo-2,3-dihydro-1H-benzo[d]imidazol-5-yl)-3,3-difluoropiperidin-1-yl)methyl)piperidine-1-carboxylate]
< 100 nM |  | < 1 nM | < 10 nM |  | CCc1c(F)ccc2cc(O)cc(-c3ncc4c(N5CCC[C@@](C)(O)C5)nc(OC[C@@]56CCCN5[C@H](COC(=O)N5CCC(C7(N8CCC(c9ccc%10c(c9)n(C)c(=O)n%10C9CCC(=O)NC9=O)CC8)CC7)CC5)CC6)nc4c3F)c12 (stereo partly drawn) [Compound 399, ((3S,7aS)-7a-(((7-(8-Ethyl-7-fluoro-3-hydroxynaphthalen-1-yl)-8-fluoro-4-((R)-3-hydroxy-3-methylpiperidin-1-yl)pyrido[4,3-d]pyrimidin-2-yl)oxy)methyl)hexahydro-1H-pyrrolizin-3-yl)methyl 4-(1-(4-(1-(2,6-dioxopiperidin-3-yl)-3-methyl-2-oxo-2,3-dihydro-1H-benzo[d]imidazol-5-yl)piperidin-1-yl)cyclopropyl) piperidine-1-carboxylate]

— patent US12599672B2, “KRAS proteolysis targeting chimeras” (PAQ Therapeutics Inc., priority 2023, dated 2026)
